{"source": "patent US6165984A", "about": "“Naringin and naringenin as inhibitors of acyl CoA-cholesterol-o-acyltransferase” (Korea Institute of Science & Technology, priority 1997, dated 2000)", "key": {"[1]": {"tested_on": "creatin kinase in the liver", "conditions": "in vivo; cited from earlier work"}, "[2]": {"test": "Blood total cholesterol and triglyceride in cholesterol-fed rabbits (Example 6)", "assay_type": "in vivo, New Zealand White rabbit", "conditions": "1% cholesterol diet, 6 weeks, 1 mg/kg Lovastatin, 0.1% naringin or naringenin", "method": "Blood samples were taken from the rats of the three dietary groups and plasma HDL fractions were separated therefrom by using HDL-cholesterol reagent (Sigma Chemical Co., Cat. No. 352-3) containing dextran-sulfate. Total cholesterol and HDL-cholesterol levels were determined by using Sigma Diagnostic Kit Cat. No. 352-100(Sigma Chemical Co., […] et al., Clin. Chem., 20, 470-475(1974)). Neutral lipid level was determined by using Sigma Diagnostic Kit Cat. No. 339-50(Bucolo, G. and David, H., Clin. Chem., 19, 476-482(1973)). The result is shown in Table III, wherein the total plasma cholesterol levels in naringin and naringenin-fed rat groups decreased by 32% and 18%, respectively, as compared with that of the control group. […] RC4 diet comprises 7.6% moisture, 22.8% crude protein, 2.8% crude fat, 8.8% crude ash, 14.4% crude cellulose and 43.6% soluble nitrogen-free substances. The rabbits were bred for 6 weeks while being allowed free access to the diets and water. Further, blood samples were taken from the rabbits and total cholesterol and triglyceride levels were determined in accordance with the same procedure in Example 4."}, "[3]": {"tested_on": "macrophage-lipid complex on the arterial endothelium", "test": "Fatty streak analysis: macrophage-lipid complex on main artery of cholesterol-fed rabbits (Example 6)", "assay_type": "in vivo, New Zealand White rabbit", "conditions": "1 mg/kg Lovastatin", "description": "RC4 diet comprises 7.6% moisture, 22.8% crude protein, 2.8% crude fat, 8.8% crude ash, 14.4% crude cellulose and 43.6% soluble nitrogen-free substances. The rabbits were bred for 6 weeks while being allowed free access to the diets and water. The rabbits bred in (Step 1) were sacrificed and their chest were incised. The main artery was cut out therefrom in a length of about 5 cm downward from the site 1 cm above the aortic valve and the fat surrounding the main artery was removed. The main artery was incised in the middle along the longitudinal axis and pinned to a dish. The moist artery was photographed and, then, staining of fatty streak was carried out in accordance with the method of […]., et al. (J. Lab. Clin. […] A part of the incised main artery was washed three times by 2 min. with anhydrous propylene glycol and stained for 30 min. with a saturated solution of Oil Red O (ORO, Sigma Co.) dissolved in propylene glycol. Thereafter, the artery was washed twice by 3 min. with 85% propylene glycol to remove remaining staining solution and, then washed with physical saline. The artery was photographed and the photograph was traced. The area of stained region (fatty streak region) was determined with an image analyzer (LEICA, Q-600, Germany) and its proportion (%) to the total arterial area was calculated. On the other hand, the other part of the main artery was stained in accordance with hematoxylin-eosin (H&E) and Masson's trichrome staining methods and observed under a microscope to confirm whether the macrophage-lipid complexes were accumulated in the intima, internus, elastic lamina and media."}, "hepatic cells": {"tested_on": "hepatic cells", "conditions": "rabbits, 1% cholesterol diet, six weeks; 1 mg/kg Lovastatin, 0.1% naringin", "method": "The same procedure as in (Step 1) was repeated except that 30 three-month old New Zealand White rabbits (Yeonam Horticulture and Animal Husbandry College, Korea) each weighing about 2.5 to 2.6 kg were used in place of the rats, and the rabbits were fed for six weeks with three different diets, i.e., RC4 diet containing 1% cholesterol (Control group); 1% cholesterol plus 1 mg/kg Lovastatin® (Comparative group); and 1% cholesterol plus 0.1% naringin, respectively.\nThereafter, the livers were separated from the rabbits and the histopathological observations were carried out as follows.\nThe rabbits were anesthetized with an intramuscular injection of ketamine (75 mg/kg) and subjected to an abdominal incision. […] The fixed liver was washed sufficiently with water, dehydrated stepwise with 70%, 80%, 90% and 100% ethanol and, then, embedded in paraffin. The embedded liver was sectioned in 4 μm thickness with a microtome and stained with hematoxylin and eosin. The stained liver specimen was made transparent with xylene, mounted with permount, and then observed under a microscope to confirm the presence of lesions."}}, "data": [{"molecule": "CC[C@H](C)C(=O)O[C@H]1C[C@@H](C)C=C2C=C[C@H](C)[C@H](CC[C@@H]3C[C@@H](O)CC(=O)O3)[C@H]21", "note": "[Lovastatin, reference compound]", "values": [{"measurement": "adverse side effect", "setting": "[1]", "result": "increasing creatin kinase in the liver"}, {"measurement": "Triglyceride", "setting": "[2]; control 56", "result": 66, "unit": "mg/dL"}, {"measurement": "Total cholesterol", "setting": "[2]; control 1143", "result": 1210, "unit": "mg/dL"}, {"measurement": "layer of macrophage-lipid complex on the arterial endothelium (FIGS. 1A-1C)", "setting": "[3]; 0.1% naringin, control: thick layer", "result": "no or very thin layers of macrophage-lipid complex"}, {"measurement": "area of macrophage-lipid complex accumulated on the arterial endothelium, compared to control group", "setting": "[3]; 1% cholesterol diet, 6 weeks, 0.1% naringin or naringenin", "result": "decreased significantly"}, {"measurement": "M-L (macrophage-lipid) complex area", "setting": "[3]; proportion of total arterial area, 1% cholesterol diet, 6 weeks, 0.1% naringin or naringenin, control 35", "result": 5, "unit": "%"}, {"measurement": "microscopic features of the liver (FIGS. 2A-2C)", "setting": "hepatic cells", "result": "irregularly arranged and enlarged and a large amount of fat is deposited therein"}]}]}
